Target: KRasG12C (M1-K169, biotinylated on the N-terminus) (Homo sapiens (Human), UniProt P01116, G12C)
Assay: Covalent competition assay: scintillation proximity assay (SPA) quantifying covalent modification of KRASG12C
Format: binding
Details: competition with radiolabeled covalent probe (Compound B/Compound A), 2 hours incubation, 10 nM KRasG12C
Outline: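 Scintillation proximity readout after streptavidin bead capture (30 min) of biotinylated KRasG12C(M1-K169):GDP, 10 nM final, which was covalently labelled over 2 h by 25 nM radio-probe plus 475 nM cold probe unless blocked by compound.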

**Q.** With `C=CC(=O)N1CC2(CC(n3nc(N4CCC(C)(O)CC4(C)C)c(-c4c(Cl)c(C)cc5[nH]ncc45)c3C)C2)C1` (single isomer, unassigned) [Example 28b, 1-(6-(4-(5-chloro-6-methyl-1H-indazol-4-yl)-3-(4-hydroxy-2,2,4-trimethylpiperidin-1-yl)-5-methyl-1H-pyrazol-1-yl)-2-azaspiro[3.3]heptan-2-yl)prop-2-en-1-one] as the molecule, how does the IC50 read?
**A.** 1300 nM

**Q.** For `C=CC(=O)N1CC2(CC(n3nc(N4CCc5ncncc5C4)c(-c4c(Cl)c(C)cc5[nH]ncc45)c3C)C2)C1` (single isomer, unassigned) [Example 15a, 1-(6-(4-(5-chloro-6-methyl-1H-indazol-4-yl)-3-(7,8-dihydropyrido[4,3-d]pyrimidin-6(5H)-yl)-5-methyl-1H-pyrazol-1-yl)-2-azaspiro[3.3]heptan-2-yl)prop-2-en-1-one], which IC50 is on record?
**A.** 18000 nM

**Q.** With `C=CC(=O)N1CC2(CC(n3nc(N4CC[C@@H](CN5CCCC6CN(C)C(=O)C65)CC4(C)C)c(-c4c(Cl)c(Cl)cc5[nH]ncc45)c3C)C2)C1` (single isomer, unassigned) [Example 262b, (4aR*,7aR*)-1-(((R)-1-(1-(2-acryloyl-2-azaspiro[3.3]heptan-6-yl)-4-(5,6-dichloro-1H-indazol-4-yl)-5-methyl-1H-pyrazol-3-yl)-2,2-dimethylpiperidin-4-yl)methyl)-6-methyloctahydro-7H-pyrrolo[3,4-b]pyridin-7-one] as the molecule, how does the IC50 read?
**A.** 7 nM

**Q.** `C=CC(=O)N1CC2(CC(n3nc(N4CCN(CC5(O)CC5)CC45CCC5)c(-c4c(Cl)c(C)cc5[nH]ncc45)c3C)C2)C1` (single isomer, unassigned) [Example 154a, 1-(6-(4-(5-chloro-6-methyl-1H-indazol-4-yl)-3-(8-((1-hydroxycyclopropyl)methyl)-5,8-diazaspiro[3.5]nonan-5-yl)-5-methyl-1H-pyrazol-1-yl)-2-azaspiro[3.3]heptan-2-yl)prop-2-en-1-one] was tested. Which IC50 did it give?
**A.** > 5000 nM

**Q.** How did the IC50 turn out when `C=CC(=O)N1CC2(CC(n3nc(N4CC[C@@H](CN5CC6(CCCO6)C5)CC4(C)C)c(-c4c(Cl)c(Cl)cc5[nH]ncc45)c3C)C2)C1` (single isomer, unassigned) [Example 234b] was run?
**A.** 9 nM

**Q.** With `C=CC(=O)N1CC2(CC(n3nc(N4CCN(C5CCOCC5)CC45CCC5)c(-c4c(Cl)c(C)cc5[nH]ncc45)c3C)C2)C1` (single isomer, unassigned) [Example 130b, 1-(6-(4-(5-Chloro-6-methyl-1H-indazol-4-yl)-5-methyl-3-(8-(tetrahydro-2H-pyran-4-yl)-5,8-diazaspiro[3.5]nonan-5-yl)-1H-pyrazol-1-yl)-2-azaspiro[3.3]heptan-2-yl)prop-2-en-1-one] as the molecule, how does the IC50 read?
**A.** 32 nM

**Q.** Which IC50 does the source give for `C=CC(=O)N1CC2(CC(n3nc(N4Cc5cnn(C)c5C4)c(-c4c(Cl)c(C)cc5[nH]ncc45)c3C)C2)C1` [Example 12, 1-(6-(4-(5-chloro-6-methyl-1H-indazol-4-yl)-5-methyl-3-(1-methyl-4,6-dihydropyrrolo[3,4-c]pyrazol-5(1H)-yl)-1H-pyrazol-1-yl)-2-azaspiro[3.3]heptan-2-yl)prop-2-en-1-one] here?
**A.** 1400 nM

**Q.** With `C=CC(=O)N1CC2(CC(n3nc(N4CC[C@@H](CN5CCN(C(=O)CO)CC5)CC4(C)C)c(-c4c(Cl)c(Cl)cc5[nH]ncc45)c3C)C2)C1` (single isomer, unassigned) [Example 310a] as the molecule, how does the IC50 read?
**A.** 2900 nM

**Q.** `C=CC(=O)N1CC2(CC(n3nc(N4CCN(CC5(O)CC5)CC45CCC5)c(-c4c(Cl)c(C)cc5[nH]ncc45)c3C)C2)C1` (single isomer, unassigned) [Example 154b, 1-(6-(4-(5-chloro-6-methyl-1H-indazol-4-yl)-3-(8-((1-hydroxycyclopropyl)methyl)-5,8-diazaspiro[3.5]nonan-5-yl)-5-methyl-1H-pyrazol-1-yl)-2-azaspiro[3.3]heptan-2-yl)prop-2-en-1-one] was tested. Which IC50 did it give?
**A.** 22 nM

**Q.** For `C=CC(=O)N1CC2(CC(n3nc(N4CC[C@@H](CN5CCN(C6COC6)CC5)CC4(C)C)c(-c4c(Cl)c(Cl)cc5[nH]ncc45)c3C)C2)C1` (single isomer, unassigned) [Example 243b], which IC50 is on record?
**A.** 6 nM

**Q.** How did the IC50 turn out when `C=CC(=O)N1CC2(CC(n3nc(N4CCN(C[C@@H]5COCCO5)C[C@]4(C)COC)c(-c4c(Cl)c(C)cc5[nH]ncc45)c3C)C2)C1` (single isomer, unassigned) [Example 181a] was run?
**A.** 929 nM

**Q.** How did the IC50 turn out when `C=CC(=O)N1CC2(CC(n3nc(N4CCN(C(C)C)CC45CCC5)c(-c4c(Cl)c(C)cc5[nH]ncc45)c3C)C2)C1` (single isomer, unassigned) [Example 131a, 1-(6-(4-(5-chloro-6-methyl-1H-indazol-4-yl)-3-(8-isopropyl-5,8-diazaspiro[3.5]nonan-5-yl)-5-methyl-1H-pyrazol-1-yl)-2-azaspiro[3.3]heptan-2-yl)prop-2-en-1-one] was run?
**A.** > 5000 nM

**Q.** Which IC50 does the source give for `C=CC(=O)N1CC2(CC(n3nc(N4CC=C(CN5CCOCC5)CC4(C)C)c(-c4c(Cl)c(Cl)cc5[nH]ncc45)c3C)C2)C1` (single isomer, unassigned) [Example 220a, 1-(6-(4-(5,6-dichloro-1H-indazol-4-yl)-3-(2,2-dimethyl-4-(morpholinomethyl)-3,6-dihydropyridin-1(2H)-yl)-5-methyl-1H-pyrazol-1-yl)-2-azaspiro[3.3]heptan-2-yl)prop-2-en-1-one] here?
**A.** > 5000 nM

**Q.** How did the IC50 turn out when `C=CC(=O)N1CC2(CC(n3nc(N4CCC(N5C6CCC5COC6)CC4(C)C)c(-c4c(Cl)c(C)cc5[nH]ncc45)c3C)C2)C1` (single isomer, unassigned) [Example 74b] was run?
**A.** 26 nM

**Q.** Which IC50 does the source give for `C=CC(=O)N1CC2(CC(n3nc(N4CCN(C[C@@H]5COCCO5)C[C@]4(C)COC)c(-c4c(Cl)c(Cl)cc5[nH]ncc45)c3C)C2)C1` (single isomer, unassigned) [Example 182a] here?
**A.** 1400 nM

**Q.** `C=CC(=O)N1CC2(CC(n3nc(N4CC[C@@H](CN5CCOC[C@@H]5CO)CC4(C)C)c(-c4c(Cl)c(Cl)cc5[nH]ncc45)c3C)C2)C1` (single isomer, unassigned) [Example 303a] was tested. Which IC50 did it give?
**A.** 5000 nM

**Q.** For `C=CC(=O)N1CC2(CC(n3nc(N4CCN(C(C)=O)CC4(C)C)c(-c4cc(O)cc5ccccc45)c3C)C2)C1` [Example 77, 1-(6-(3-(4-acetyl-2,2-dimethylpiperazin-1-yl)-4-(3-hydroxynaphthalen-1-yl)-5-methyl-1H-pyrazol-1-yl)-2-azaspiro[3.3]heptan-2-yl)prop-2-en-1-one], which IC50 is on record?
**A.** 1200 nM

**Q.** For `C=CC(=O)N1CC2(CC(n3nc(N4CC[C@@H](CN5CCC6COCC65)CC4(C)C)c(-c4c(C)c(Cl)cc5[nH]ncc45)c3C)C2)C1` (single isomer, unassigned) [Example 305a, 1-(6-(4-(6-chloro-5-methyl-1H-indazol-4-yl)-3-((R)-4-(((3aR*,6aR*)-hexahydro-1H-furo[3,4-b]pyrrol-1-yl)methyl)-2,2-dimethylpiperidin-1-yl)-5-methyl-1H-pyrazol-1-yl)-2-azaspiro[3.3]heptan-2-yl)prop-2-en-1-one], which IC50 is on record?
**A.** 2500 nM

**Q.** `C=CC(=O)N1CC2(CC(n3nc(N4CC[C@@H](CN5CC6OCCN(C)C6C5)CC4(C)C)c(-c4c(Cl)c(Cl)cc5[nH]ncc45)c3C)C2)C1` (single isomer, unassigned) [Example 259a, 1-(6-(4-(5,6-dichloro-1H-indazol-4-yl)-3-((R)-2,2-dimethyl-4-(((4aR*,7aS*)-4-methylhexahydropyrrolo[3,4-b][1,4]oxazin-6(2H)-yl)methyl)piperidin-1-yl)-5-methyl-1H-pyrazol-1-yl)-2-azaspiro[3.3]heptan-2-yl)prop-2-en-1-one] was tested. Which IC50 did it give?
**A.** 779 nM

**Q.** How did the IC50 turn out when `C=CC(=O)N1CC2(CC(n3nc(N4CCN(S(C)(=O)=O)CC4(C)C)c(-c4c(Cl)c(C)cc5[nH]ncc45)c3C)C2)C1` (single isomer, unassigned) [Example 126b, 1-(6-(4-(5-chloro-6-methyl-1H-indazol-4-yl)-3-(2,2-dimethyl-4-(methylsulfonyl)piperazin-1-yl)-5-methyl-1H-pyrazol-1-yl)-2-azaspiro[3.3]heptan-2-yl)prop-2-en-1-one] was run?
**A.** 170 nM

**Q.** For `C=CC(=O)N1CC2(CC(n3nc(N4CC[C@@H](CN5CCN(C6COC6)C[C@@H]5COC)CC4(C)C)c(-c4c(Cl)c(Cl)cc5[nH]ncc45)c3C)C2)C1` (single isomer, unassigned) [Example 320b], which IC50 is on record?
**A.** < 5 nM

**Q.** `C=CC(=O)N1CC2(CC(n3nc(N4CCN(C5CCOCC5)C[C@@]4(CC)C(F)F)c(-c4c(Cl)c(C)cc5[nH]ncc45)c3C)C2)C1` (single isomer, unassigned) [Example 156a] was tested. Which IC50 did it give?
**A.** > 5000 nM

**Q.** How did the IC50 turn out when `C=CC(=O)N1CC2(CC(n3nc(N4CCC(CN5C[C@@H]6OCCO[C@@H]6C5)CC4(C)C)c(-c4c(Cl)c(Cl)cc5[nH]ncc45)c3C)C2)C1` (single isomer, unassigned) [Example 232b] was run?
**A.** 137 nM

**Q.** For `C=CC(=O)N1CC2(CC(n3nc(N4CCc5cnn(C)c5C4)c(-c4c(Cl)c(C)cc5[nH]ncc45)c3C)C2)C1` (single isomer, unassigned) [Example 14a, 1-(6-(4-(5-chloro-6-methyl-1H-indazol-4-yl)-5-methyl-3-(1-methyl-1,4,5,7-tetrahydro-6H-pyrazolo[3,4-c]pyridin-6-yl)-1H-pyrazol-1-yl)-2-azaspiro[3.3]heptan-2-yl)prop-2-en-1-one], which IC50 is on record?
**A.** > 50000 nM

**Q.** For `C=CC(=O)N1CC2(CC(n3nc(N4CCC5C(CC(=O)N5C)C4)c(-c4c(Cl)c(C)cc5[nH]ncc45)c3C)C2)C1` (single isomer, unassigned) [Example 38b, 5-(1-(2-acryloyl-2-azaspiro[3.3]heptan-6-yl)-4-(5-chloro-6-methyl-1H-indazol-4-yl)-5-methyl-1H-pyrazol-3-yl)-1-methyloctahydro-2H-pyrrolo[3,2-c]pyridin-2-one], which IC50 is on record?
**A.** 89 nM

**Q.** How did the IC50 turn out when `C=CC(=O)N1CC2(CC(n3nc(N4CCN(C5CCCOC5)C[C@]4(C)CC)c(-c4c(Cl)c(C)cc5[nH]ncc45)c3C)C2)C1` (single isomer, unassigned) [Example 157a] was run?
**A.** > 5000 nM

**Q.** How did the IC50 turn out when `C=CC(=O)N1CC2(CC(n3nc(N4CCN(C[C@@H]5COCCO5)C[C@]4(C)CC)c(-c4c(Cl)c(C)cc5c4cnn5C)c3C)C2)C1` (single isomer, unassigned) [Example 109a] was run?
**A.** 334 nM

— patent US20240317721A1, “PYRAZOLYL DERIVATIVES AS INHIBITORS OF THE KRAS MUTANT PROTEIN” (NOVARTIS AG, priority 2021, published 2024)
